In US20110294155A1, “MODULATION OF AN ION CHANNEL OR RECEPTOR” (Howard Florey Institute, priority 2008, published 2011):
“Also recorded” adds a separate entry of the source.

Biological target: skeletal muscle Nav1.4 sodium channels (Homo sapiens, UniProt P35499)
Assay: Dynamic clamp whole cell assay of action potential firing at HEK cells expressing Nav1.4 sodium channels
Format: cell-based
Method: Twenty-four hours prior to experimentation, cells were dissociated using Versene (EDTA) and plated at 10-12% confluency onto coverslips. The following day the coverslips were placed into the recording chamber and held at 22-25° C. for the duration of the experiments.
Borosilicate glass pipettes (WPI) were used for the whole cell assay. These pipettes were filled with an intracellular solution containing (mM): 10 NaF, 110 CsF, 20 TEA.Cl, 2 ethylene glycol tetraacetic acid and 10 HEPES, with pH adjusted to 7.4 using CsOH and osmolarity adjusted to 310 mosmol/L with sucrose.
The bath solution contained in (mM): 141 NaCl, 4 KCl, 1.0 MgCl2, 1.8 CaCl2, 10 HEPES buffer, and 4 tetraethylammonium (TEA).Cl, with pH adjusted to 7.4 with NaOH and osmolarity adjusted to 310 mosmol/L with sucrose. Bath temperature was controlled using a Warner Instruments (Hamden, Conn.) controller (TC-344B) with inline solution and bath heating.
Electrophysiological recordings were made 10 minutes after establishing whole cell recording. Recordings were made on an EPC-9 patch clamp amplifier (Heka Instruments, Lambrecht, Germany) filtered at 14.4 kHz with >80% series resistance compensation and sampled at 50 kHz. The current monitor output from the EPC-9 was fed into the analogue input channel of a data acquisition card.
The model runs in polling mode using the ode5 fixed time step solver with a step size of 50 μS.
The dynamic clamp system was configured to account for leak conductance, and to also simulate the function of potassium channels, which were not present in the HEK cell.
Following attainment of a whole cell clamp in the HEK cell, a period of 10 minutes was allowed for diffusion of the pipette solution into the intracellular volume of the cell. During this period cells were held at −85 mV.
Control was transferred to the Simulink system and a range of current injections were trialled to achieve a steady state action potential firing of 50-100 Hz (FIG. 8). This firing was stable and continued as long as a stimulating current injection was maintained. […]

skeletal muscle Nav1.4 sodium channels, sequence (P35499 whole entry): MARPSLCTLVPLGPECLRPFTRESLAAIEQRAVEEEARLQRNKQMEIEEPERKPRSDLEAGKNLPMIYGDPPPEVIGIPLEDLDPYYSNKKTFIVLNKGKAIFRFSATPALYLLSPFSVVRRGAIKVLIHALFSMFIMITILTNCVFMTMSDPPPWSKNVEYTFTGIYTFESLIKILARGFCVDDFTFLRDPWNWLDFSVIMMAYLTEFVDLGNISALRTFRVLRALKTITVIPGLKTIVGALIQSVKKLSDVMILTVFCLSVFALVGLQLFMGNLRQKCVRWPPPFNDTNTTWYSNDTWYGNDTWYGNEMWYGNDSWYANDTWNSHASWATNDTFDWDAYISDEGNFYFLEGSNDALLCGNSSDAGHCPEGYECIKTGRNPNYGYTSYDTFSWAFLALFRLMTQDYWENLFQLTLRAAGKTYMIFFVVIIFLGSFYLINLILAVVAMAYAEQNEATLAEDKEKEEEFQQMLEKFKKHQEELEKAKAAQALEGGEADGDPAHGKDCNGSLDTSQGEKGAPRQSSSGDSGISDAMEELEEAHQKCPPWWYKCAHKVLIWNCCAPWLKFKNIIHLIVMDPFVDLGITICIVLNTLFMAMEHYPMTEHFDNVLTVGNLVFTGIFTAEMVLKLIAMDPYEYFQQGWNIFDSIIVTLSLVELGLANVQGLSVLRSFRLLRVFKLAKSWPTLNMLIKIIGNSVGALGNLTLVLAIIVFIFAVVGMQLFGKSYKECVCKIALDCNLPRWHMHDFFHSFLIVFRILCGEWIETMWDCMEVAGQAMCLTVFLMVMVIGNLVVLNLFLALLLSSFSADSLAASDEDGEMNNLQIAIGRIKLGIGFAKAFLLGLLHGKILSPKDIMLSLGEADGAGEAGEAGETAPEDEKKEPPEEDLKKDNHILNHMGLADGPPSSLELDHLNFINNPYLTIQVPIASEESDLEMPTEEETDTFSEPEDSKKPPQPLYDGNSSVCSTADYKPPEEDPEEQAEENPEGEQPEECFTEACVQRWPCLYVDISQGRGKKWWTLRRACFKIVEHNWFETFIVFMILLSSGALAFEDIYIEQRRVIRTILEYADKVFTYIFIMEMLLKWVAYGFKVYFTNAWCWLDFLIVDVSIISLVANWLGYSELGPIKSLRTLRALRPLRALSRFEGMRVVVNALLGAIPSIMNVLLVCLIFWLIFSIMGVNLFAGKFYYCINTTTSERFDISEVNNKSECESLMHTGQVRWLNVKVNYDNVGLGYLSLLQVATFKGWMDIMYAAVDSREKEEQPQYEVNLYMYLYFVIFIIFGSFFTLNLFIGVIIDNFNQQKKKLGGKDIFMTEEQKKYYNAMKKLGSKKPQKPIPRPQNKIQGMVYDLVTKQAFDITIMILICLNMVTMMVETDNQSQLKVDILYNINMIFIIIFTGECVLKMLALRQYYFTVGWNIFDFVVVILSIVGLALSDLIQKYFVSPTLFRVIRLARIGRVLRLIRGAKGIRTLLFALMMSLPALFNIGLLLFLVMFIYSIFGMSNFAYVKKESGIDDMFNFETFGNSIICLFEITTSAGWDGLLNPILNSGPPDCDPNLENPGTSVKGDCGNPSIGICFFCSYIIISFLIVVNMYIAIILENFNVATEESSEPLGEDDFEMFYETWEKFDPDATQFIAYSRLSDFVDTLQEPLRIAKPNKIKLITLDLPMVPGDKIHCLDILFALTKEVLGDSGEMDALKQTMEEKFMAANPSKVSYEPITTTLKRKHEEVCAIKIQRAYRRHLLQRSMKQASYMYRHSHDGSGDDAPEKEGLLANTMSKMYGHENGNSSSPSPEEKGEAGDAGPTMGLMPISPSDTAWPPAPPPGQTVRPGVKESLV

number of action potentials elicited by a stimulating current step (continued presence of 50 μM, HEK cells expressing Nav1.4, no further firing would occur): 2-3
Compound: NC(=O)N1c2ccccc2C=Cc2ccccc21 [carbamazepine]
action potential firing rate (50 μM in bath solution perfused onto HEK cells expressing Nav1.4, steady state firing of 50-100 Hz before compound): decreased the action potential firing rate; also recorded: decrease in action potential firing rate
